From patent publication US5354748A, “Oral antibacterial compositions and method for the improvement of gastrointestinal absorption of penem or carbapenem antibiotics” (Suntory Limited, priority 1991, dated 1994)

Key:
[1] = in vivo; design: species or system Sprague-Dawley male rats; settings: rat, intravenous penem; at each cilastatin dosage
Method: The blood was collected during the period of from 0.1 to 1.5 hours after the administration. The concentrations of the free acid of the penem in plasma samples were measured by high performance liquid chromatography (HPLC) to determine the area under the plasma concentration:time curve (AUC).

[2] = system: epithelial cells isolated from the small intestine of a rat; assay: Degradation of penem in epithelial cells isolated from rat small intestine (free acid of penem remaining by HPLC, with/without cilastatin); format: in vitro ADME; settings: cilastatin 35 μg/ml; 37° C., 60 minutes
Method: Degradation of penems in epithelial cells isolated from the small intestine of a rat was investigated by the following method. Namely, the epithelial cells were isolated from the small intestine of the rat by the citric acid method reported in The Journal of Biological Chemistry, 248, […] (1973).
After the resultant solution was incubated at 37° C. for 60 minutes, the free acid of the penem was measured by high performance liquid chromatography (HPLC).

SMILES: CC1(C)C[C@@H]1C(=O)N/C(=C\CCCCSC[C@H](N)C(=O)O)C(=O)O [cilastatin, reference compound]
- Area under the plasma concentration:time curve upon intravenous administration, compared with single administration [1]: not different
- Degradation of the penem carboxylate by addition of cilastatin [2]: inhibited
